Test results taken from paper PMC5650142, “GPR40 partial agonists and AgoPAMs: Differentiating effects on glucose and hormonal secretions in the rodent” (PLoS ONE, 2017).
Where “and” joins values, the source holds several entries; their conditions need not be identical. Equal entries are not always repeated. Where two headings read alike, the source gives them in different places.

Columns and labels:
mouse GPR40 = target: T1, mouse GPR40 (Mus musculus, UniProt Q76JU9); experiment: Mouse GPR40 IP1 accumulation assay; type: cell-based
T1 construct: expressed in transfected cells; host or cells: CHO-K1 (methods)
Description: (§1) Stable cell lines expressing human GPR40 (hGPR40/HEK293), mouse GPR40 (mGPR40/CHO-K1), and rat GPR40 (rGPR40/CHO-K1) were cultured in DMEM media supplemented with 10% FBS, glutamine, non-essential amino acids, and penicillin/streptomycin. hGPR40/HEK293 & mGPR40/CHO-K1 cell media was supplemented with […] G418 (Life Technologies), while rGPR40/CHO-K1 cells were grown in […] blasticidin plus […] hygromycin (Life Technologies). Cell stocks were maintained and grown in a sub-confluent state using standard cell culture procedures. The day before the experiment, the cells were harvested with non-enzymatic cell dissociation buffer and re-suspended in DMEM supplemented with 10% FBS, glutamine, non-essential amino acids, penicillin/streptomycin at 0.15, 0.2 and 0.3 million cells per ml for human, mouse, and rat GPR40, respectively. […] The seeded plates were incubated overnight at 37 C.
(§2) On the day of the experiment, the growth media was removed from the assay by gently patting the assay plates on an absorbent sheet and 10 μl of IP1 stimulation buffer (Cis Bio IP-one Tb HTRF kit) supplemented with 50 mM LiCl is added to each well. Test compounds dissolved in DMSO were serially diluted in ½ log increments starting from 2 mM or 0.2 mM and 50 nl of the compound dilution was acoustically added to each well (final starting concentration 10 μM or 1 μM). Plates were then incubated for 60 minutes at room temperature and 10 μl of detection buffer (prepared as described in the Tb kit) is added to each well. The plates are then incubated one additional hour at room temperature. […] For each assay, a standard curve plate in which IP1 is titrated is also included. […] The percent activity at each concentration of test compound is determined using 0% activation (basal activity) determined in those wells that contain DMSO alone, while 100% activity is determined in wells that contained a concentration of a partial allosteric agonist know to activate GPR40. The % activity is then plotted versus the concentration of test compound and the dose response curve fitted to a standard 4-parameter non-linear regression model using a custom in-house developed software package (Merck & Co., Inc., MRL, Kenilworth, NJ, USA). Maximal % activity and EC50 are then determined for each test compound.

rat GPR40 = target: T2, rat GPR40 (Rattus norvegicus, UniProt Q8K3T4); experiment: Rat GPR40 IP1 accumulation assay; type: cell-based
T2 construct: expressed in transfected cells; host or cells: CHO-K1 (methods)
Description: as §1, §2

GK rats [1] = experiment: GK rat chronic efficacy (28 days: glucose, food intake, body weight, GLP-1, GIP, PYY, insulin, glucagon); type: in vivo; details: 30 mpk, day 28, fed, individual animals
Description: At the start of the study, fed (ambient) blood glucose was measured via glucometer at 1 h post lights on, and animals were selected and sorted into treatment groups based on ambient glucose (n = 10/ GK group, n = 6 WKY control). Blood for baseline incretin measurements was collected in the PM via tail vein. Rats were dosed via oral gavage (PO) at a volume of 5 ml/kg daily at approximately 12:30 PM with either vehicle (0.5% methylcellulose), AP1 at 30 mg/kg, or AP3 at 30 mg/kg. MK-8666, a GPR40 partial agonist synthesized at Merck & Co., Inc., Kenilworth, NJ USA [13], at 30 mg/kg was administered in feed (Research Diets, New Brunswick, NJ) and provided ad lib. All compounds were administered to achieve maximal efficacious exposures determined in acute efficacy studies similar to those acute studies described above. In brief, partial agonists and AgoPAMs were titrated in the acute GK rat experiment described above and the exposure associated with maximal efficacy in glucose lowering was noted. Partial agonists and AgoPAMs were then dosed to maintain those exposures up to 24h post dose. […] Rats from this group and the WKY controls were administered vehicle PO when the vehicle, AP1, and AP3 groups were treated. Fed blood glucose, food intake, and body weights were determined on days 10, 17, 23, and 28 of study at 2 h post lights on. Immediately after these measures were taken on days 10, 17, 23, and 28, food was removed. After 5h of fasting, animals were dosed with vehicle or compound and allowed to rest for an additional hour. Glucose, GLP-1, GIP, and PYY were measured after 6h of fasting at 1 hr post dose. Fed blood glucose is described by animals having had ad libidum access to feed up till the time of sampling and occurred at 2h post-lights on where rats were nearing the end of their nocturnal feeding cycle. Fasted blood glucose is described by blood glucose sampled after 6h of fasting where food was removed at 2h post lights on. Please note that the fasted sample was taken 1h post oral dosing. On day 10, blood was collected from the tail vein (20 μl) after morning glucose measures and after 6 hour fast from a subset of n = 3 rats per treatment group to determine the fed and fasted exposure of the compounds in circulation. The blood was stored at 4°C in 0.1 M sodium citrate for subsequent analysis of drug exposure.
Blood for insulin, glucagon, GLP-1, GIP, and PYY measurements was collected into K2EDTA Microtainer tubes (BD, Franklin Lakes, NJ) pre-treated with DPP4 inhibitor (Millipore, Billerica, MA) and cOmplete™ Protease Inhibitor Cocktail Tablets (Roche Diagnostics, Indianapolis, IN). Tubes were centrifuged for 10 minutes at 5000 RPM, and plasma was aliquotted for analysis. Plasma insulin levels were measured via EIA (Mesoscale Discovery ELISA Kit, Gaithersburg MD). Rat plasma total GLP-1 was measured using Total GLP-1 (ver.2) Assay Kit (Cat#: K150JVC). The measurement of active GLP-1 was carried out in a similar manner as that described for total GLP-1 assay with the exception that MSD Active GLP-1 (ver. 2) assay kit (Cat# K150JWC) was used. Rat plasma glucagon was measured using an in-house glucagon assay developed as a MSD format sandwich immunoassay (Merck & Co., Inc., MRL, Kenilworth, NJ USA). The antibody specificity was cross validated via mass- spec using procedures described in Lee et al. Briefly, MSD Streptavidin Gold plates were coated with 2 μg/ml biotin mouse monoclonal antibody generated to glucagon. Test samples were added to the plates and a separate Sulfo- tagged monoclonal antibody was used to detect the captured glucagon protein (2 μg/ml). The ELISA was carried out in the standard reagents in the MSD format. The plate was read on the SECTOR Imager 6000 Reader. Metabolic hormones GIP (Gastric Inhibitory Polypeptide) and PYY (Peptide YY) were measured in rat plasma using the Rat Metabolic Magnetic Bead Panel (EMD Millipore, Billerica, MA). The assay was performed according to manufacturer protocol. […]

GK rats [2] = experiment: GK rat acute efficacy (glucose, insulin, glucagon after single dose); type: in vivo; details: 100 mpk
Description: Ambient blood glucose was measured via tail snip with a glucometer (OneTouch Ultra, Lifescan Inc., Milpitas, CA). Body weights were then measured, and food was removed approximately 1 hr post lights on. Animals were sorted into treatment groups based on ambient glucose. At approximately 10 AM, glucose was measured and blood for insulin, glucagon, and drug exposure was collected. […] Each compound tested was dosed at its maximal effective dose determined through a series of dose titrations using this experimental paradigm (data not shown). Effects of treatment on glucose, insulin, and glucagon were measured at 1, 2, 4, and 24 hrs post dose. After the 4 hr blood collection, food was returned overnight and removed the next day at 1 hr post lights on.
Blood for insulin, glucagon, GLP-1, GIP, and PYY measurements was collected into K2EDTA Microtainer tubes (BD, Franklin Lakes, NJ) pre-treated with DPP4 inhibitor (Millipore, Billerica, MA) and cOmplete™ Protease Inhibitor Cocktail Tablets (Roche Diagnostics, Indianapolis, IN). Tubes were centrifuged for 10 minutes at 5000 RPM, and plasma was aliquotted for analysis. Plasma insulin levels were measured via EIA (Mesoscale Discovery ELISA Kit, Gaithersburg MD). Rat plasma total GLP-1 was measured using Total GLP-1 (ver.2) Assay Kit (Cat#: K150JVC). The measurement of active GLP-1 was carried out in a similar manner as that described for total GLP-1 assay with the exception that MSD Active GLP-1 (ver. 2) assay kit (Cat# K150JWC) was used. Rat plasma glucagon was measured using an in-house glucagon assay developed as a MSD format sandwich immunoassay (Merck & Co., Inc., MRL, Kenilworth, NJ USA). The antibody specificity was cross validated via mass- spec using procedures described in Lee et al. Briefly, MSD Streptavidin Gold plates were coated with 2 μg/ml biotin mouse monoclonal antibody generated to glucagon. Test samples were added to the plates and a separate Sulfo- tagged monoclonal antibody was used to detect the captured glucagon protein (2 μg/ml). The ELISA was carried out in the standard reagents in the MSD format. The plate was read on the SECTOR Imager 6000 Reader. Metabolic hormones GIP (Gastric Inhibitory Polypeptide) and PYY (Peptide YY) were measured in rat plasma using the Rat Metabolic Magnetic Bead Panel (EMD Millipore, Billerica, MA). The assay was performed according to manufacturer protocol.

T1 sequence (Q76JU9 whole entry): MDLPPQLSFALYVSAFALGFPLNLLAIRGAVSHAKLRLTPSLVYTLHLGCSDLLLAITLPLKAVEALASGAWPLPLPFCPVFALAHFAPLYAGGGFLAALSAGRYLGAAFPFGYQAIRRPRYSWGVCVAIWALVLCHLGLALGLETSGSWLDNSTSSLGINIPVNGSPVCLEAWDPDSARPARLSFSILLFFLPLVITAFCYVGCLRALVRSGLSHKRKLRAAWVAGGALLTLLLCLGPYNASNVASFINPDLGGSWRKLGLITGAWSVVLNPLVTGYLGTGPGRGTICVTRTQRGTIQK
T2 sequence (Q8K3T4 whole entry): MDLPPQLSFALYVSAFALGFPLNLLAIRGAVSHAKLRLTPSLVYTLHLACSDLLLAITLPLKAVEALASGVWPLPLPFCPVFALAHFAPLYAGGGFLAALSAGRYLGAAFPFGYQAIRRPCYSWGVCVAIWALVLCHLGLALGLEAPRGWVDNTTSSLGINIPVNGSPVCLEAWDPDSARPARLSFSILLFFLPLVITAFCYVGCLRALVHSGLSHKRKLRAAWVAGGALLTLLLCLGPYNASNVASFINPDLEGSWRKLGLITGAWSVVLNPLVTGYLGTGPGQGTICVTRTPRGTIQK

SMILES: CC#C[C@@H](CC(=O)O)c1ccc(OCc2cccc(-c3ccc(C(F)(F)F)cc3)c2)cc1 [AMG-837, reference compound]
- EC50 (mouse GPR40; EC50 (nM), Mouse GPR40, Functional Assay, individual determinations): 2.6 nM and 3.6 nM and 1.7 nM and 1.1 nM and 1.8 nM
- EC50 (mouse GPR40; Potency [EC50, nM] ± SD, Mouse, mean ± SD, n = 2–20, IP accumulation): 1.9 ± 0.76 nM
- EC50 (mouse GPR40; individual determinations, read-out: EC50 (nM), Mouse GPR40, Functional Assay): 2 nM
- EC50 (rat GPR40; EC50 (nM), Rat GPR40, Functional Assay, individual determinations): 1.9 nM and 1.6 nM and 1.2 nM and 0.9 nM and 1.8 nM and 1.1 nM
- EC50 (rat GPR40; individual determinations, read-out: EC50 (nM), Rat GPR40, Functional Assay): 1.3 nM and 2.2 nM
- EC50 (rat GPR40; mean ± SD, n = 2–20, IP accumulation, read-out: Potency [EC50, nM] ± SD, Rat): 1.5 ± 0.41 nM

SMILES: C[C@H](C(=O)O)[C@H](c1ccc2c(c1)O[C@H](C1CN(Cc3cc(C(F)(F)F)ccc3C(F)(F)F)C1)CC2)C1CC1 [P3]
- Fed glucose on day 28 (Fig 3B) (GK rats [1]): 141 and 132 and 113 and 119 and 112 and 106 and 116 and 101

SMILES: Cc1cc(OCCCS(C)(=O)=O)cc(C)c1-c1cccc(COc2ccc3c(c2)OC[C@H]3CC(=O)O)c1 [TAK]
- Plasma Glucagon Over Time (Fig 2C) (GK rats [2]; time 0, individual animals): 75.2366 pg/mL and 59.5419 pg/mL and 46.7473 pg/mL and 119.065 pg/mL and 82.5246 pg/mL and 83.5453 pg/mL and 74.4881 pg/mL and 90.3444 pg/mL
- Plasma Insulin Over Time (Fig 2B) (GK rats [2]; time 0, individual animals): 2.655 ng/mL and 1.525 ng/mL and 2.703 ng/mL and 2.889 ng/mL and 1.936 ng/mL and 1.972 ng/mL and 2.503 ng/mL and 2.551 ng/mL
- Plasma Glucagon Over Time (Fig 2C) (GK rats [2]; time 1, individual animals): 168.277 pg/mL and 120.989 pg/mL and 104.57 pg/mL and 184.364 pg/mL and 130.682 pg/mL and 112.051 pg/mL and 81.0192 pg/mL and 132.45 pg/mL
- Plasma Insulin Over Time (Fig 2B) (GK rats [2]; time 1, individual animals): 3.3854 ng/mL and 2.854 ng/mL and 4.397 ng/mL and 4.229 ng/mL and 2.551 ng/mL and 2.055 ng/mL and 2.175 ng/mL and 2.74 ng/mL
- Plasma Glucagon Over Time (Fig 2C) (GK rats [2]; time 2, individual animals): 165.323 pg/mL and 244.359 pg/mL and 138.27 pg/mL and 211.843 pg/mL and 72.9369 pg/mL and 186.55 pg/mL and 94.6201 pg/mL and 160.38 pg/mL
- Plasma Insulin Over Time (Fig 2B) (GK rats [2]; time 2, individual animals): 2.858 ng/mL and 2.437 ng/mL and 3.152 ng/mL and 3.268 ng/mL and 1.276 ng/mL and 1.644 ng/mL and 1.778 ng/mL and 2.202 ng/mL
- Plasma Glucagon Over Time (Fig 2C) (GK rats [2]; time 4, individual animals): 85.2047 pg/mL and 62.7395 pg/mL and 105.981 pg/mL and 18.1244 pg/mL and 124.809 pg/mL and 199.712 pg/mL and 103.043 pg/mL and 175.312 pg/mL
- Plasma Insulin Over Time (Fig 2B) (GK rats [2]; time 4, individual animals): 1.494 ng/mL and 1.787 ng/mL and 2.636 ng/mL and 1.66 ng/mL and 1.848 ng/mL and 1.214 ng/mL and 2.191 ng/mL and 1.8763 ng/mL
- Plasma Glucagon Over Time (Fig 2C) (GK rats [2]; time 24, individual animals): 86.4436 pg/mL and 115.249 pg/mL and 67.5931 pg/mL and 36.8268 pg/mL and 81.8289 pg/mL and 118.991 pg/mL and 35.1523 pg/mL and 94.7909 pg/mL
- Plasma Insulin Over Time (Fig 2B) (GK rats [2]; time 24, individual animals): 1.093 ng/mL and 1.2004 ng/mL and 2.002 ng/mL and 0.9338 ng/mL and 1.238 ng/mL and 1.808 ng/mL and 1.437 ng/mL and 1.841 ng/mL
